From patent US8258186B2, “Pharmaceutical for oral delivery comprising MGBG” (Pathologica, LLC, priority 2009, dated 2012)

Legend:
[1] = Rhesus macaque single-dose pharmacokinetics; format: in vivo, rhesus monkeys
Method: (§1) Two groups of three male rhesus monkeys were fasted overnight before being administered the test article, MGBG, as either a single bolus intravenous dose of 1 mg/kg (Group 1) or as a single oral gavage dose of 10 mg/kg (Group 2). Dose formulation analysis verified administered dose solutions as within 14% of targeted concentrations of 1 and 10 mg/kg for Groups 1 and 2, respectively.
Blood samples were collected into tubes containing lithium heparin from the femoral vein/artery (approximately 1.0 mL) for plasma MGBG concentration measurement from all intravenously dosed animals prior to dosing and at approximately T=0.083 (5 min), 0.25 (15 min), 0.5 (30 min), 1, 2, 4, 8, and 24 hours after dosing. Blood samples for plasma MGBG concentration measurement were collected from all orally dosed animals prior to dosing at approximately T=1, 2, 4, 8, 12, 24, and 36 hours after dosing. Food was also withheld through the first four hours of blood sample collection.
The samples were centrifuged under refrigerated conditions following completion of sample collection at each interval. The resulting plasma was separated and stored frozen at approximately −70° C. until analysis.
PK analysis was performed on the individual plasma concentration-time profiles for MGBG using the WinNonlin non-compartmental approach (linear trapezoidal rule for AUC calculations). Nominal dose values and sampling times were used for calculations. All MGBG plasma concentration measurements reported as BQL (<2.51 ng/mL) were set equal to zero for the purpose of analysis. Following IV and PO administration of MGBG, plasma PK disposition parameters were calculated using the WinNonlin default selection criteria for the selection of the Lambda Z.
Consequently, a model-dependent two-compartmental analysis was used to calculate bioavailability.

[2] = Rat single-dose pharmacokinetics; format: in vivo, Sprague Dawley rats
Method: Eighteen male Sprague Dawley rats (Charles River) weighing 217-263 g and aged 8-9 weeks were administered the test article, MGBG as either a single bolus intravenous dose of 1 mg/kg (Group 1) or as a single oral gavage dose of 10 mg/kg. A cohort of three animals was sacrificed via CO2 inhalation anaesthesia after final blood collection at each of T=2, 4, 12, 24, 36, and 48 hours post-dose. Dose formulation analysis verified administered dose solutions as within 17% of targeted concentration of 10 mg/kg.
Analysis was performed by LC/MS/MS. Pharmacokinetic analyses were performed on the mean MGBG plasma concentration versus time data using the non-compartmental approach (linear trapezoidal rule for AUC calculations). The WinNonlin sparse sampling tool was used for PK calculations. All samples reported as BQL (Below the Limit of Quantitation, in plasma 2.50 ng/mL) were changed to 0.00 ng/mL for the purpose of analysis.

in vivo = assay: in vivo; parameters: species or system beagle dogs; conditions: male, beagle, dog
Method: as §1, with “beagle dogs weighing 9.0-10.7 kg and aged 8-30 months” for “rhesus monkeys”, “17%” for “14%”
Blood samples (approximately 2.0 mL) were collected for plasma MGBG concentration measurement from all intravenously dosed animals prior to dosing and at approximately T=0.083 (5 min), 0.25 (15 min), 0.5 (30 min), 1, 2, 4, 8, and 24 hours after dosing. A similar procedure was used with orally dosed animals was used, except that collection took place at T=1, 2, 4, 8, 12, 24, and 36 hours after dosing. The samples were centrifuged under refrigerated conditions following completion of sample collection at each interval. The resulting plasma was separated and stored frozen at approximately −70° C. until analysis.

[3] = Multi-species allometric scaling, predicted pharmacokinetic parameters in humans; conditions: predicted human, based on Mouse, Dog, Rhesus
Text: Multi-species allometric scaling based on pharmacokinetic parameters disclosed in Tables 2 and 3 was employed to calculate predicted pharmacokinetic parameters in humans according to methods known in the art. See, e.g., Ings R M, “Interspecies scaling and comparisons in drug development and toxicokinetics,” Xenobiotica, 1990 November; 20(11):1201-31 and Khor, S P et al., “Dihydropyrimidine dehydrogenase inactivation and 5-fluorouracil pharmacokinetics: allometric scaling of animal data, pharmacokinetics and toxicodynamics of 5-fluorouracil in humans,” Cancer Chemother Pharmacol (1997) 39(3): 833-38. Expected values are given below in Tables 6 and 7.

[4] = male, rhesus monkey, plasma, single bolus IV 1 mg/kg, mean
[5] = male, rhesus monkey, plasma, single oral gavage 10 mg/kg, mean
[6] = male, rhesus monkey, single bolus IV 1 mg/kg, plasma, mean
[7] = male, rhesus monkey, single oral gavage 10 mg/kg, plasma, mean
[8] = single oral gavage 10 mg/kg, mean
[9] = male, Sprague Dawley, plasma, single bolus IV 1 mg/kg, mean
[10] = male, Sprague Dawley, plasma, single oral gavage 10 mg/kg, mean
[11] = male, Sprague Dawley, single bolus IV 1 mg/kg, plasma, mean

In the case of `CC(/C=N/NC(=N)N)=N\NC(=N)N` [MGBG, 1,1′[methylethanediylidene]dinitrilodiguanidine], the “systemic plasma MGBG exposure” value ([1]; following IV and PO administration) is reported as “observed at all collected plasma time points”, the bioavailability ([1]; male, rhesus monkey, plasma, oral 10 mg/kg vs IV 1 mg/kg, two-compartmental analysis used) is reported as 35% and the Tmax [1, 4] is reported as 0.139 h. For the same compound, the half-life [1, 4] was 30.8 h, the Tmax [1, 5] was 3.33 h and the half-life [1, 5] was 24.2 h. The AUC [1, 6] was 1660 ng·h/mL, the Cmax [1, 6] was 757 ng/mL and the AUC [1, 7] was 4240 ng·h/mL. It also gave a Cmax [1, 7] of 192 ng/mL, a Clobs ([1]; single bolus IV 1 mg/kg, mean) of 13.7 mL/min/kg and a VSSobs ([1]; single bolus IV 1 mg/kg, mean) of 13.2 L/kg. For the same compound, the Clobs [1, 8] was 6.63 mL/min/kg, the clinical findings ([2]; following dosing) was “Abnormal clinical findings were not noted” and the bioavailability ([2]; male, Sprague Dawley, plasma, oral 10 mg/kg vs IV 1 mg/kg) was 11.6%. It also gave a Tmax [2, 9] of 0.083 h, a half-life [2, 9] of 17.4 h and a Tmax [2, 10] of 4.67 h. The half-life [2, 10] was 28.1 h, the AUC [2, 11] was 1250 ng·h/mL and the Cmax [2, 11] was 684 ng/mL. For the same compound, the AUC ([2]; male, Sprague Dawley, single oral gavage 10 mg/kg, AUCall, time zero to last plasma concentration measurement) was 1280 ng·h/mL, the Cmax ([2]; male, Sprague Dawley, single oral gavage 10 mg/kg, plasma, mean) was 55.8 ng/mL and the “time point through which MGBG levels in plasma were measurable” value ([2]; single PO 10 mg/kg, beyond that certain samples BLQ) was 12 h. For the same compound, the Clobs ([2]; single bolus IV 1 mg/kg, mean) was 13.4 mL/min/kg, the VSSobs ([2]; single bolus IV 1 mg/kg, mean) was 15.4 L/kg and the Clobs [2, 8] was 3.18 mL/min/kg. For the same compound, the AUC (in vivo; iv, 1 mg/kg) was 1410 ng·h/mL, the Clobs (in vivo; iv, 1 mg/kg) was 13.7 mL/min/kg and the Cmax (in vivo; iv, 1 mg/kg) was 1180 ng/mL. The Tmax (in vivo; iv, 1 mg/kg) was 0.083 h, the VSSobs (in vivo; iv, 1 mg/kg) was 14.6 L/kg and the half-life (in vivo; iv, 1 mg/kg) was 15.8 h. The AUC (in vivo; po, 10 mg/kg) was 6290 ng·h/mL, the Clobs (in vivo; po, 10 mg/kg) was 8.29 mL/min/kg and the Cmax (in vivo; po, 10 mg/kg) was 616 ng/mL. For the same compound, the Tmax (in vivo; po, 10 mg/kg) was 1 h, the bioavailability (in vivo; po, 10 mg/kg) was 49% and the half-life (in vivo; po, 10 mg/kg) was 15.5 h. It also gave a VSS ([3]; IV) of 9.1 L/kg, a t1/2 ([3]; IV) of 13.3 h and a t1/2 ([3]; IV, Rat) of 13.4 h. The CL ([3]; ORAL) was 20.9 mL/min/kg, the t1/2 ([3]; ORAL) was 23.0 h and the t1/2 ([3]; ORAL, Rat) was 23.3 h.
